We go through five compounds from patent US20020028938A1, “Prostaglandin endoperoxide H synthase biosynthesis inhibitors” (priority 1997, published 2002).

The target of data set [1] is T1, recombinant human Cox-2 (r-hu Cox-2) (Homo sapiens, UniProt P35354).
T1 construct: made in house; host or cells: baculovirus/Sf9 insect cells (microsomes)
T1 sequence (P35354 18-604): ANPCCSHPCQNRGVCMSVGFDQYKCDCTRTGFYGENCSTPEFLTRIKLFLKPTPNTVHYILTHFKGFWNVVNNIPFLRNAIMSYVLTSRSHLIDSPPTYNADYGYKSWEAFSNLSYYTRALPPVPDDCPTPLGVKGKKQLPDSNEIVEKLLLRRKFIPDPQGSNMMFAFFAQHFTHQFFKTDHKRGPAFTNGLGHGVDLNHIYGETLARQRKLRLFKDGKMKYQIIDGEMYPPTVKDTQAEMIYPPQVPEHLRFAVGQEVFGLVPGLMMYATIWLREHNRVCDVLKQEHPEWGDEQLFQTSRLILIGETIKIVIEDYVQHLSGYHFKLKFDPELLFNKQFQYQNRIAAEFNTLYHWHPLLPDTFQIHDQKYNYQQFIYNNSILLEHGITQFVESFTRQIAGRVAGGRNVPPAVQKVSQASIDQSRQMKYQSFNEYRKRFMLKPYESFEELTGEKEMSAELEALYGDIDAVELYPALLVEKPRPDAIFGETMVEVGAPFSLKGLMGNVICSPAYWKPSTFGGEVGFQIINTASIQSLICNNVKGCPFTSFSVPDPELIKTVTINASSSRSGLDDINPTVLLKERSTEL
Description: Recombinant human PGHS-2 enzyme assay (RHUCX2). The following applies: for IC50: read-out: RHUCX2 IC50 (parenthetical value). It counts as biochemical. The method, boiled down: (§1)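 Prostaglandin biosynthesis was measured as PGE2 output, read by enzyme immunoassay after a 2.5-minute room-temperature reaction stopped with HCl and neutralized with NaOH.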

Data set [2] addresses T2, human amnionic whole cell cyclooxygenase-2 (WISH cells) (Homo sapiens, UniProt P35354).
T2 construct: endogenous in cells; host or cells: human amnionic WISH cells, induced with IL-1beta
T2 sequence (P35354 18-604): T1 sequence (P35354 18-604)
Description: IL-1β induced PGE2 production in WISH cells. The class given is cell-based. The following applies: read-out: Wish IC50 (parenthetical value). The procedure, abridged:
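Confluent (80%) WISH cells were stimulated with 5 ng/ml IL-1β in serum-free Neuman-Tytell medium, with or without test compound in DMSO (0.01% v/v). PGE2 in the culture medium was measured by EIA against standards prepared in the same medium, read by optical density.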

Data set [3] has as its target T3, Cox-1 in Monocyte U937 cells (Homo sapiens, UniProt P23219).
T3 construct: endogenous in cells; host or cells: U937 monocyte cells (ATCC)
Description: Monocyte U937 cell Cox-1 assay. The class given is cell-based. The method, then:
Human amnionic WISH cells were grown to 80% confluence in 48 well plates. Following removal of the growth medium and two washings with Geys Balanced Salt Solutn, 5 ng IL-1β /ml (UBI, Lake Placid, N.Y.) was added to the cells with or without test compound in DMSO (0.01% v/v) in Neuman-Tytell Serumless Medium (GIBCO, Grand Island, N.Y.). Following an 18 hour incubation to allow for the maximal induction of PGHS-2, the conditioned medium was removed and assayed for PGE2 content by EIA analysis as described above.
Monocyte U937 (ATCC, Rockville, Md.) cells were grown in a similar fashion to the WISH cells. After incubation, the conditioned medium was removed and assayed for […] by EIA analysis as described above.

The target in data set [4] is T4, recombinant human Cox-1 (r-hu Cox1) (Homo sapiens, UniProt P23219).
T4 construct: made in house; host or cells: baculovirus/Sf9 insect cells (microsomes)
T4 sequence (P23219 24-599): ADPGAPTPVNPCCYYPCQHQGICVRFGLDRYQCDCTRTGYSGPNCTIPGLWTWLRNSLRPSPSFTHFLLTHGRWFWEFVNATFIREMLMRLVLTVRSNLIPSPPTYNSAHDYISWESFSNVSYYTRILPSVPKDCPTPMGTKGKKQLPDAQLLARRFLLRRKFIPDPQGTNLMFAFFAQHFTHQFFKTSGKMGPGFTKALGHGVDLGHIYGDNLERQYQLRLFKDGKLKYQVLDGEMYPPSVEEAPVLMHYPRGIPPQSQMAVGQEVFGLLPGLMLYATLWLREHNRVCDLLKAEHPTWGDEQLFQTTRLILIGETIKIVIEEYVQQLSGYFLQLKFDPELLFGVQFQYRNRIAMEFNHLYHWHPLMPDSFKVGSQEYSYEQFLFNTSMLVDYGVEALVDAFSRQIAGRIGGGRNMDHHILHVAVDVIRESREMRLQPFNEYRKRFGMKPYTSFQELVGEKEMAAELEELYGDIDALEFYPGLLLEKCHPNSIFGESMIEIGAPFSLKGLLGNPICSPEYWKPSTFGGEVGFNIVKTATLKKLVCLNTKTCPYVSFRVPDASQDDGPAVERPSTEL
Put plainly: Recombinant human PGHS-1 enzyme assay (RHUCX1). The following applies: for inhibition at 100 µM / inhibition at 10 µM: read-out: RHUCX1 % Inh. at Dose. The class given is biochemical. The procedure, abridged: as §1

Data set [5] deals with carrageenan induced paw edema. Description: Carrageenan induced paw edema (CPE) in rats. It counts as in vivo. The following applies: rat; for inhibition in vivo at 10 mg/kg: 10 mpk oral, 3 hours after carrageenan, read-out: CPE % Inhib. @ 10 mpk. The procedure, abridged: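 Male Sprague-Dawley rats (170–190 g) dosed orally in PEG 400, 1 h before subplantar 0.1 ml 1% lambda carrageenan in right hindpaw. Plethysmographic paw volume at 0 and 3 h; edema as difference, % inhibition versus control mean (±SEM), Dunnett's test, ED50 by linear regression.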
In general terms: Carrageenan injected into the paw causes an acute inflammation.

Data set [6] in a line: Pharmacokinetic profile (plasma concentration, half life, AUC). The class given is in vivo, Rat. The following applies: for half-life: Rat IV (3mg/kg); for AUC / concentration at 14 day: rat; for concentration at 14 day: oral, based on 10 mg/kg dosage, read-out: 14 day plasma micromolar concentration.
The test system of data set [7] is air pouch prostaglandin biosynthesis (Cox-2). Description: Carrageenan induced air pouch prostaglandin biosynthesis model (CAP). It counts as in vivo, rat. The following applies: for inhibition in vivo at 3 mg/kg: 4 h, 3 mpk, rat, read-out: CAP % Inhib. @ 3 mpk; for ED50: Rattus norvegicus. The procedure, abridged:
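Male Sprague Dawley rats with dorsal air pouches (20 mL air day 0, 10 mL day 3) received 0.2% lambda carrageenan in saline into the pouch on day 7. Compounds dosed at 0.1 to 10 mg/kg 30 min before carrageenan; pouch lavaged 4 h later, prostaglandins measured by EIA. Percent inhibition versus control mean; ED50 by linear regression.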

For data set [8], the target named is T5, Human Whole Platelet Cyclooxygenase-1 (Homo sapiens, UniProt P23219).
T5 construct: from tissue; host or cells: human blood: isolated platelets (A4) or heparinised whole blood (A9)
T5 sequence (P23219 24-599): as above
Put plainly: Human Whole Platelet Cyclooxygenase-1 assay (HWPX). It counts as cell-based. The following applies: read-out: HWPX IC50 (parenthetical value). The method, boiled down:
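Washed platelets from healthy-donor ACD blood were pre-incubated with compound for 10 min, then stimulated with calcium ionophore A23187 (8.8 μM final) for 10 min. Reaction stopped with cold 6 mM EDTA; thromboxane in supernatants quantified with a commercial kit.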

Another data set deals with T6, Human whole blood Cox-1 (Homo sapiens, UniProt P23219).
T6 construct: from tissue; host or cells: human blood: isolated platelets (A4) or heparinised whole blood (A9)
T6 sequence (P23219 24-599): as above
Put plainly: Human whole blood assay Cyclooxygenase-1. The class given is cell-based. The method, then: Heparin anticoagulated blood was incubated with drugs dissolved in DMSO. The samples are incubated at 37 degrees Celsius for 4.5 hours after which calcium ionophore at a final concentration of 30 μM was added and the mixture allowed to incubate for 30 minutes. The reaction was stopped with the addition of EGTA and cold methanol (50% final concentration). After 18 hours at −70 degrees Celsius, the plates were centrifuged and supernatants analyzed for TXB2.

A further data set has as its target T7, Human whole blood Cox-2 (Homo sapiens, UniProt P35354).
T7 construct: from tissue; host or cells: heparinised human whole blood stimulated with E. coli LPS
T7 sequence (P35354 18-604): T1 sequence (P35354 18-604)
Description: Human whole blood assay Cyclooxygenase-2. It counts as cell-based. The procedure:
Heparin anticoagulated blood was incubated with drugs dissolved in DMSO. The samples are incubated at 37 degrees Celsius for 15 minutes. E. coli lipopolysaccaride (LPS) 5 μg/ml dded and the samples incubated for 5 hours. The reaction was stopped with the addition of EGTA and cold methanol (50% final concentration). After 18 hours at −70 degree Celsius, the plates were centrifuged and supernatants analyzed for TXB2.

T3 sequence (P23219 24-599): as above

`CS(=O)(=O)c1ccc(-c2cnn(Cc3ccc(F)cc3)c(=O)c2-c2ccc(F)cc2)cc1` [Example 20] came in with a melting point of 153 to 154 °C. The inhibition at 0.01 µM in [1] (0.01 μM, read-out: RHUCX2 % Inh. at Dose) stood at 9%. Moreover, in data set [1] (0.1 μM, read-out: RHUCX2 % Inh. at Dose), the inhibition at 0.1 µM was found to be 86%. Besides, the IC50 in [2] stood at 1 nM. In [3] (U-937, 1 μM, read-out: U937 % Inhib. at Dose), the inhibition at 1 µM amounted to 33%. The inhibition at 100 µM in [4] was found to be 10%.
`CC(C)=CCn1ncc(-c2ccc(S(C)(=O)=O)cc2)c(-c2ccc(F)cc2)c1=O` [Example 24, 2-(3-Methyl-2-butenyl)-4-(4-fluorophenyl)-5-[4-(methylsulfonyl)phenyl]-3(2H)-pyridazinone]: the melting point lay in the range of 169 to 172 °C. For the same compound, the IC50 in [3] (read-out: U937 IC50 (parenthetical value)) is 190 nM. Also, in data set [4], the inhibition at 10 µM amounted to 0% and the inhibition at 100 µM came to 60%.
The compound `CC(C)CCOc1c(-c2ccc(S(C)(=O)=O)cc2)cnn(-c2ccc(F)cc2)c1=O` [Example 375, 2-(4-Fluorophenyl)-4-(3-methylbutoxy)-5-[4-(methylsulfonyl)phenyl]-3(2H)-pyridazinone] returned a melting point of 117 to 120 °C. In addition, the IC50 in data set [1] was found to be 180 nM. In addition, in data set [5], the inhibition in vivo at 10 mg/kg came out at 47%. Further, the IC50 in data set [2] came out at 89 nM. In [6], the half-life was 2.9 h, the AUC came out at 1.8 µM·h and the concentration at 14 day turned out to be 0 µM. Further, in data set [7], the inhibition in vivo at 3 mg/kg came out at 77.5% and the 50% effect level (ED50) was put at a dose of 0.57 mg/kg. The IC50 in [8] came out at 2040 nM. In addition, in data set [4], the inhibition at 10 µM is 31% and the inhibition at 100 µM came out at 46%.
For the compound `CC(C)(O)CCOc1c(-c2ccc(S(C)(=O)=O)cc2)cnn(-c2ccc(F)cc2)c1=O` [Example 451, 2-(4-Fluorophenyl)-4-(3-hydroxy-3-methyl-1-butoxy)-5-[4-(methylsulfonyl)phenyl]-3(2H)-pyridazinone], the melting point was 133 to 134 °C. Besides, the IC50 in [1] turned out to be 470 nM. Also, the “CPE ED30” value in [5] (oral) is “ED30 = 0.82”. The IC50 in data set [2] worked out at 150 nM. The compound also came in with an IC50 against Human whole blood Cox-1 of 29100 nM. Besides, in data set [6], the half-life was 5.2 h, the AUC came to 69 µM·h and the concentration at 14 day was found to be 3.43 µM. The compound also registered an IC50 on Human whole blood Cox-2 of 470 nM. In [7], the inhibition in vivo at 3 mg/kg came to 80.5% and it took a dose of 0.7 mg/kg to reach the 50% effect level (ED50). In data set [8], the IC50 was 22400 nM. Also, the inhibition at 100 µM in [4] is 10%.
As to `CC(C)(O)CCOc1c(-c2ccc(S(C)(=O)=O)cc2)cnn(-c2ccc(F)c(F)c2)c1=O` [Example 471, 2-(3,4-Difluorophenyl)-4-(3-hydroxy-3-methyl-1-butoxy)-5-[4-(methylsulfonyl)phenyl]-3(2H)-pyridazinone], the melting point lay within 131 to 133 °C. In data set [1], the IC50 stood at 490 nM. In addition, the inhibition in vivo at 10 mg/kg in [5] was 41%. In addition, in data set [2], the IC50 is 40 nM. This compound had an inhibition at 30 µM on Human whole blood Cox-1 (30 micromolar) of 55.5%. In addition, at Human whole blood Cox-2 (0.03 micromolar), the inhibition at 0.03 µM was 85%. This compound also registered an ED50 in data set [7] of 0.9 mg/kg. The IC50 in data set [8] came to 320 nM. The IC50 in [4] (read-out: RHUCX1 IC50 (parenthetical value)) is 3680 nM.

In general, IC50 refers to the concentration that gives 50% inhibition. By melting point is commonly meant the temperature, or range, at which the solid turns liquid. As usually defined, the half-life is the time in which the quantity being followed falls by half. Lower therefore signals fast loss. For orientation: AUC means concentration integrated over time. A lower AUC goes with less exposure. As usually defined, the ED50 is the dose that gives a 50% effect, or the effect in half of the subjects. Higher therefore signals weaker potency.
